From PubChem BioAssay AID2005 (Sanford-Burnham Center for Chemical Genomics, 2009)
Activity calls are given as the source filed them.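 How the source made its calls: active means plate Z score at or below -3, or inhibition of at least 30% at 20 µM; inactive means the rest.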

Test: EGFP reporter destabilization counter-screen – F442A EGFP cells, fluorescence, counter-screen for p/CIP destabilizer project, dose response (AID 2005);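 further: cells express EGFP alone from a CMV promoter as a counter screen for p/CIP-EGFP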
Settings: F442A EGFP cells, EGFP fluorescence, 16 h, stronger effect = higher value

| Structure (SMILES) | inhibition (EGFP decrease, at 10 µM) [%] | inhibition (at 20 µM) |
| --- | --- | --- |
| O=c1nc2n(c3ccc([N+](=O)[O-])cc13)CCCCC2 | 39 | 29.5% (inactive) |
| O=C(COC(=O)c1cnccn1)c1ccc(OC(=O)c2ccccc2)cc1 | 21 | 17% (inactive) |
| COc1cccc(-c2nc(CS(=O)CC(=O)NCc3ccccc3)c(C)o2)c1 (stereo unspecified) | 19.6 | -13.3% (inactive) |
| CCCCN(Cc1ccccc1)S(=O)(=O)c1ccc2[nH]c(=O)oc2c1 | 7.9 | 11.8% (inactive) |
| Cc1cccc(C)c1OCc1cc(C(=O)N2CCCC2c2nonc2C)no1 (stereo unspecified) | 17.2 | 11.5% (inactive) |
| CC(=O)Nc1ccc(S(=O)(=O)Nc2nccs2)cc1 | 21.2 | 15.6% (inactive) |
| Nc1ccc(C(=O)N2N=C(c3ccccc3)CC2(O)C(F)(F)F)cc1 (stereo unspecified) | 28.6 | 4.3% (inactive) |
| CCn1c(SCC(=O)Nc2nc3ccc(C)cc3s2)nc2c(c1=O)SC(C)C2 (stereo unspecified) | 36.6 | 44.7% |
| O=C(COc1ccc(F)cc1)Nc1nc2c(s1)CCCC2 | 26.7 | 24% (inactive) |
| Cc1ccc(S(=O)(=O)N/N=C(\c2ccccc2)c2cccnc2)cc1 | 5.5 | 21.7% (inactive) |
| C=CCN(c1ccccc1)S(=O)(=O)c1ccc(Cl)c(C(=O)OCC(=O)NCCCN2CCCC2=O)c1 | 16.8 | 14.2% (inactive) |
| Cc1ccc(/C=C/C(=O)c2ccc(N3CCOCC3)cc2)s1 | 8.3 | -1.4% (inactive) |
| Cc1nc2sc(C(c3cccc(F)c3)N3CC(C)OC(C)C3)c(O)n2n1 (stereo unspecified) | 6.2 | 30% |
| COc1ccc(-n2ncc3c(SCC(=O)N4CCN(c5ccccc5OC)CC4)ncnc32)cc1 | 17.1 | 9.4% (inactive) |
| O=C(c1ccc(F)cc1)C1CCN(C(=O)c2c(F)cccc2F)CC1 | 12.9 | 13.5% (inactive) |
| O=C(NCCc1cccc(F)c1)C1CCCN(c2nc3ccccc3s2)C1 (stereo unspecified) | 16.8 | 0.4% (inactive) |
| Cn1c(NCc2ccco2)nc2c1c(=O)n(Cc1ccc(Cl)cc1)c(=O)n2C | 17.1 | 20.5% (inactive) |
| COc1cccc2cc(C(C)=O)c(=O)oc12 | 33.2 | 24.2% (inactive) |
| CCNc1nc(C)c2cc(Br)c(=O)n(CC)c2n1 | 18.2 | 4.8% (inactive) |
| COC(=O)[C@@H](Cc1c[nH]c2ccccc12)NC(=O)C1CCCN(S(=O)(=O)c2ccc(C)cc2)C1 (stereo partly specified) | -7.3 | 19.7% (inactive) |
| O=C(NCc1ccc(Cl)cc1)C1CCN(S(=O)(=O)c2cccs2)CC1 | 6 | 6.7% (inactive) |
| Cc1c(NC(=O)CN2C(=O)NC3(CCC(C)CC3)C2=O)c(=O)n(-c2ccccc2)n1C (stereo unspecified) | 5.2 | 0.8% (inactive) |
| Cc1nc2c(=O)n(C)c(=O)nc-2n(C)n1 | 54.2 | 34.4% |
| C=CCC(NCc1ccco1)c1ccc(OC)cc1OC (stereo unspecified) | 22.1 | -5.4% (inactive) |
| CC(=O)c1cccc(N2Cc3ccccc3C2=NC(=O)CCl)c1 | 13.9 | 7.4% (inactive) |
| CCCCS(=O)(=O)Nc1ccc2c(c1)ncn2C1CCCCC1 | 27.7 | 13.8% (inactive) |

| Structure (SMILES) | inhibition (EGFP decrease, at 10 µM) [%] | inhibition (at 20 µM) |
| --- | --- | --- |
| Cn1c(SCc2ccc(C#N)cc2)nnc1-c1ccccc1 | 18.5 | -12.9% (inactive) |
| COC(=O)CS(=O)(=O)c1cccc2cccnc12 | 38.4 | 19.7% (inactive) |
| COc1ccc(/C=C/C2=NN(Cc3ccccc3)C(=O)CC2)cc1 | 28.1 | 18.7% (inactive) |
| COc1ccc(OC)c(NS(=O)(=O)c2c(C(=O)N3CCCCCC3)c(C)n(C)c2C)c1 | 32.8 | 15.9% (inactive) |
| CCC1=[N+]([O-])C(C)(/C(C)=N\O)N(O)C1(C)C (stereo unspecified) | -2.6 | -11% (inactive) |
| Cc1cc(C)n(CC(O)COc2ccc(C(C)(C)C)cc2)n1 (stereo unspecified) | -4.8 | 7.7% (inactive) |
| Cc1ccc(S(=O)(=O)NCC(C)NS(=O)(=O)c2ccc(C)cc2)cc1 (stereo unspecified) | 34.7 | -7.7% (inactive) |
| Cc1noc(C)c1CSc1nnc(C)c(=O)[nH]1 | -9.8 | -3.4% (inactive) |
| COc1c[nH]n(C2CCCCC2)c(=O)c1=O | 6.1 | -8.9% (inactive) |
| Cc1cc(C)n(C(=O)CNc2ccccc2Cl)n1 | 9 | 23.3% (inactive) |
| CCc1ccc(NC(=S)N2CCC(NC(=O)c3ccccc3OC)CC2)cc1 | -7.8 | 5.4% (inactive) |
| COc1ccc(CN(CC(=O)NCc2ccc(F)cc2)C(=O)CCC(=O)Nc2ccccn2)cc1 | -14.2 | 16.1% (inactive) |
| CC1(C)C(=O)Nc2ccccc2N1C(=O)COc1ncnc2c(Cl)cc(Cl)cc12 | 18.4 | 17.9% (inactive) |
| Cc1ccccc1OC(C)C(=O)Nc1ccc(S(=O)(=O)Nc2nccs2)cc1 (stereo unspecified) | -2.8 | -1.1% (inactive) |
| Cc1cc2nnc(SCC(=O)N3CCOCC3)n2c2ccccc12 | 26.4 | 17.9% (inactive) |
| Cc1ccc(S(=O)(=O)Nc2cc(C(C)C)c(O)cc2C)cc1 | -16.2 | -4.5% (inactive) |
| O=C(NCCSc1ccccn1)c1ccc(Cl)cc1Cl | 19.7 | 3.4% (inactive) |
| COc1ccc(S(=O)(=O)Nc2cccc(-n3cnnn3)c2)cc1OC | 6.4 | 6.9% (inactive) |
| c1ccc(C2CC3CC4(CCCC4)N2O3)cc1 (stereo unspecified) | 17.2 | -10.7% (inactive) |
| Cc1cc(=O)[nH]c(SCC(=O)O)c1C#N | 24 | 10.9% (inactive) |
| Cc1cc(C(=O)Nc2cccc(C)c2C)n(-c2ccccc2)n1 | -4.4 | 5.5% (inactive) |
| Cc1ccccc1-c1cc2c(nn1)-c1ccccc1C2=O | 32.1 | 6.4% (inactive) |
| Cc1sc2nc(COC(=O)c3ccc(N4CCCC(C)C4)c([N+](=O)[O-])c3)[nH]c(=O)c2c1C (stereo unspecified) | 26.5 | 11.2% (inactive) |
| CC(O)CNc1nc2c(c(=O)n(C)c(=O)n2C)n1Cc1cccc(Br)c1 (stereo unspecified) | 24.8 | 12.7% (inactive) |
| Cc1nc2ccccc2c(=O)n1-c1ccc(Cl)c(Cl)c1 | 12.7 | 12.7% (inactive) |
| c1ccc(-c2cn3c(n2)CCc2ccc4cccnc4c2-3)cc1 | -17.2 | -5% (inactive) |

| Structure (SMILES) | inhibition (EGFP decrease, at 10 µM) [%] | inhibition (at 20 µM) |
| --- | --- | --- |
| O=[N+]([O-])c1ccc(-c2nnc(CNC3CCCC3)o2)cc1 | 17.3 | 25.1% (inactive) |
| O=C(Nc1ccc(N2CCOCC2)c(Cl)c1)c1ccc(-n2cnnc2)cc1 | 15.2 | 4.8% (inactive) |
| C[C@H](NC(=O)C1CCC(CNC(=O)[C@@H]2CCCN2C(=O)OC(C)(C)C)CC1)C(=O)O (stereo partly specified) | 26.7 | 20.8% (inactive) |
| COc1ccc(/C=C/C(=O)Nc2cccc(N3CCOCC3)c2)cc1OC | -4.5 | 6.7% (inactive) |
| NC(=O)c1nsc(C(=O)N(CC(=O)NC2CCCC2)c2ccc(F)c(Cl)c2)c1N | -4.6 | 15.2% (inactive) |
| COc1cccc(-c2noc(-c3ccc(Cl)nc3)n2)c1 | -8.2 | -3.6% (inactive) |
| COc1ccc(S(=O)(=O)N2c3ccccc3OCC2c2ccccc2)cc1 (stereo unspecified) | -12.8 | 1.8% (inactive) |
| CCCCC(=O)NC(c1ccccc1Cl)c1ccc2cccnc2c1O (stereo unspecified) | 3.1 | -6.1% (inactive) |
| Cc1ccsc1/C=N\NC(=O)CCc1c(C)n[nH]c1C | 4 | -13.2% (inactive) |
| CN(C)N=C1c2cc(S(=O)(=O)N(C)C)ccc2-c2ccc(S(=O)(=O)N(C)C)cc21 | 2.3 | 6.6% (inactive) |
| CCC1=C(OC(=O)N(CC)CC)N2C(=O)OC(=NCC3CC3)[C@]2(C)[C@H]2C1=CC[C@H]1C(=O)N(CC)C(=O)[C@H]12 | -7.5 | -27.5% (inactive) |
| CCOC(=O)C1=C(N)Oc2cc(C)oc(=O)c2C12C(=O)N1c3c(cc(OC)cc32)C(C)=CC1(C)C (stereo unspecified) | -0.3 | 5.1% (inactive) |
| CCOC(=O)c1oc2ccccc2c1N | 12.3 | 19.4% (inactive) |
| O=C(CSc1ccc(Cl)cc1)OCc1nnc(-c2ccccc2)o1 | 7.2 | 13.1% (inactive) |
| C(=N\NC1=Nc2cccc3cccc1c23)/c1ccccn1 | 10.2 | 12% (inactive) |
| Cc1ccc2[nH]c3c(c2c1)CCCC3=O | 28.5 | 27.9% (inactive) |
| Cc1ccc(Cn2c(SCC(C)C)nc3c2c(=O)[nH]c(=O)n3C)cc1 | 6.3 | 20.7% (inactive) |
| N#Cc1cc(F)c(N2CCNCC2)cc1Cl | 13.5 | 6.7% (inactive) |
| Cc1c(NC(=O)C(C)OC(=O)/C=C/c2ccco2)c(=O)n(-c2ccccc2)n1C (stereo unspecified) | 10.9 | -5.3% (inactive) |
| CCOc1ccc(-c2nc(-c3ccccc3)no2)cc1OCC | -19.3 | 1.4% (inactive) |
| O=S(=O)(NCC1CCCN(Cc2ccccc2)C1)c1cccc2cccnc12 (stereo unspecified) | 21.3 | 19.6% (inactive) |
| CC(=O)N1[C@H](Cc2ccccc2)C=C[C@]1(C)C(=O)NCc1ccccn1 | -7.6 | 8.7% (inactive) |
| Cc1ccc(-n2ncc(Br)c(Br)c2=O)cc1 | 9.4 | -1.3% (inactive) |
| Cc1ccc(S(=O)(=O)N(C)c2ccc(C(=O)NCc3cccnc3)cc2)cc1 | -13.7 | -8.4% (inactive) |
| COc1cc(C2NCCC(=O)C2(C)C)cc(OC)c1OC (stereo unspecified) | -1.8 | 21.4% (inactive) |
| O=C(COC(=O)COc1ccccc1)NCc1ccccc1 | 16.3 | 11.3% (inactive) |
